The source of these data is publication PMC10094929, “Determination of Phenol with Peroxidase Immobilized on CaCO3” (International Journal of Molecular Sciences, 2023).

In the experiment the test system is T1, native peroxidase (horseradish peroxidase).
T1 construct: gene PRXC1A
As to conditions: free enzyme; phenol varied; 4-aminoantipyrine 0.3 mmol/L, hydrogen peroxide 4.68 mmol/L; 0.1 M phosphate-buffered saline pH 7.2; 24 °C.

SMILES strings stand for the structures.

One may read the Km as the substrate concentration at which the rate is half of its maximum. Consider `Oc1ccccc1` [phenol], for which the Km stood at 994 µM.
